The numbers were not newly measured in PMC7651685 (Psychopharmacology, 2020), which cites them from elsewhere.

Data set [1] relates to DAT. More on the design: method as in Hasenhuetl et al. [2015]. Conditions: ref Hasenhuetl et al. [2015]; cited from earlier work.
The conditions of data set [2]: rodent, 14C-DAS; Data-on-file; ref Sunovion report 360-365; cited from earlier work.
The conditions of data set [3]: orally administered, recreational stimulant users; ref Koblan et al. [2016]; cited from earlier work.
Data set [4] deals with efflux transporters of the ATP binding cassette (ABC) superfamily. The settings on record: LLC-PK1 cell monolayers and Xenopus Laevis Oocytes; Data-on-file; ref Sunovion Reports #531, 544, 575; cited from earlier work.
Data set [5] deals with DAT. Conditions: ref Rowley et al. [2017]; read-out: Affinity for DAT, IC50; cited from earlier work.
The subject of a further data set is P-gp. Conditions: LLC-PK1 cell monolayers and Xenopus Laevis Oocytes; Data-on-file; ref Sunovion Reports #531, 544, 575; cited from earlier work.
The test system of data set [6] is solute carrier (SLC) and organic anion transporters (OAT). The settings on record: LLC-PK1 cell monolayers and Xenopus Laevis Oocytes; Data-on-file; ref Sunovion Reports #531, 544, 575; cited from earlier work.

The structures appear in SMILES notation. Where a name gives a salt, the structure may show the parent alone.

`COC(=O)C(c1ccccc1)C1CCCCN1` (racemic) [MPH, (±)-Methyl α-Phenyl-α-(2-piperidyl)acetate hydrochloride, reference compound]: the “Association rate (kon) to DAT” value in the data set on DAT [1] was 830000 M⁻¹ s⁻¹.
Regarding `N[C@@H]1CC[C@@H](c2ccc(Cl)c(Cl)c2)c2ccccc21` [DAS, (1R,4S)-4-(3,4-dichlorophenyl)-1,2,3,4-tetra-hydronaphthalen-1-amine], the “brain:plasma ratio/partition coefficient (Kp)” value in data set [2] is given as 6.2–12.3. Further, in data set [3], the Potential for abuse entry is “low potential for abuse compared with MPH”. The “Substrate for other efflux transporters of the ABC superfamily” value in data set [4] is given as “not a substrate”. The IC50 (usually the concentration needed to halve the response being measured) in the data set on DAT [5] was 3 nM. In addition, the “Substrate for P-gp” value in the data set on P-gp is recorded as “not a substrate”. Moreover, in data set [6], the “Active uptake by SLC and OAT transporters” value is reported as “not actively taken up”.
